These results are taken from paper PMC7756582, “Prodrugs of γ‐Alkyl‐Modified Nucleoside Triphosphates: Improved Inhibition of HIV Reverse Transcriptase” (Angewandte Chemie (International Ed. in English), 2020).

A short description of this data set: Enzyme-catalyzed hydrolysis in human CD4+ T-lymphocyte CEM cell extracts. The class given is in vitro ADME. The settings on record: for half-life at 0.86 mM: CEM/0 cell extracts (CD4+ T-lymphocytes), human CD4+ T-lymphocyte CEM cell extracts, 37 °C, read-out: CEM/0 cell extracts t 1/2 (converted). The protocol:
The stability of prodrugs 6 and the γ‐alkyl‐NTPs 7 was further investigated in human CD4 ^+ T‐lymphocyte CEM cell extracts. […] Thus, an enzymatic cleavage reaction took place. Half‐lives as low as 0.4 h (6 az) to 5.2 h (6 dz) were determined. […] This is in accordance to our previous results for the DiPPro‐[ ^17 , ^18 ] or the TriPPPro‐compounds 5.[ ^22 , ^23 ] In all cases we observed the predominant formation of γ‐alkyl‐d4TTPs 7 and d4TDP 2 d in very low concentration (Figure 2 B) but no NTP formation was detected, in contrast to the studies using the previously described TriPPPro compounds 5.[ ^23 , ^24 ] However, the difference to the compounds bearing long lipophilic acyl groups was not very pronounced (2‐ to 3‐fold). In the case of γ‐(AB‐C4,alkyl‐C18)‐d4TTP 6 cz, γ‐C18‐d4TTP 7 z was detected as the main product. After 8 h incubation, the ratio of γ‐C18‐d4TTP 7 z and d4TDP 2 d was 5:1. This was in sharp contrast to the studies performed with TriPPPro compounds 5.[ ^23 , ^24 ] There, it was almost impossible to detect significant concentrations of d4TTP due to its fast dephosphorylation to form first d4TDP and finally d4TMP 2 m. […] The formation of thymine or d4TTP 2 t from γ‐C18‐d4TTP 7 z was not detected (Supporting Information, Figure SI2).
ProLab 300 from Schott Co.. Thermomixer: Eppendorf Thermomixer 5436 and CellMedia Thermoschüttler basic were used. […]
Enzyme-catalyzed hydrolysis of γ-(AB,alkyl)-d4TTPs 6, γ-alkyl-d4TTPs 7,15 and TriPPPros 5 in CEM cell extracts:
18 µL of the appropriate 50 mM DMSO-d6 stock solution was diluted to 6.0 mM hydrolysis solution by addition of 132.0 µL DMSO-d6.
7-10 different samples including 10 µL water and 10 µL hydrolysis solution were prepared in 2 mL Eppendorf® vials. The reaction was started by addition of 50 µL human CEM cell extract and the mixture was incubated at 37 °C for different time periods. The reactions were stopped by addition of 150 μL MeOH. The solution was kept on ice for 5 min followed by centrifugation for 5 min (13000 rpm).
The supernatants were filtered (Chromafil® RC-20/15 MS, 0.2 μm) and stored in liquid nitrogen. When testing, the samples were defrosted and injection volume with 80 μL was used for HPLC analysis. The calculation of t1/2 was performed analogously to that for the chemical hydrolysis studies.
Preparation of cell extracts: Human CD4+ T-lymphocyte CEM cells were grown in RPMI-1640-based cell culture medium to a final density of ~3·10^6 cells/ml. Then, cells were centrifuged for 10 min at 1,250 rpm at 4 °C, washed twice with cold PBS, and the pellet was re-suspended at 10^8 cells/ml and sonicated (Hielscher Ultrasound Techn., 100% amplitude, 3·times for 10 sec) to destroy cell integrity. The resulting cell suspension was then centrifuged at 10,000 rpm to remove cell debris, and the supernatant divided in aliquots before being frozen at -80 C and used.

Bounds are passed on as bounds.

In the case of `CCCCCCCCCCCCCCCCCCOP(=O)(OCc1ccc(OC(=O)CCCC)cc1)OP(=O)(O)OP(=O)(O)OCC1C=CC(n2cc(C)c(=O)[nH]c2=O)O1` (centres unmarked) [6 cz, γ‐(AB‐C4,alkyl‐C18)‐d4TTP], the half-life at 0.86 mM is 4.8 h.

For `CCCCOP(=O)(O)OP(=O)(O)OP(=O)(O)OCC1C=CC(n2cc(C)c(=O)[nH]c2=O)O1` (centres unmarked) [7 w, γ‐C4‐d4TTP], the half-life at 0.86 mM was greater than 30 h.

For `CCCCCCCCCCCCCCCCCCOP(=O)(O)OP(=O)(O)OP(=O)(O)OCC1C=CC(n2cc(C)c(=O)[nH]c2=O)O1` (centres unmarked) [7 z, γ‐C18‐d4TTP], the half-life at 0.86 mM was greater than 30 h.

With `Cc1cn(C2C=CC(COP(=O)(O)OP(=O)(O)OP(=O)(O)O)O2)c(=O)[nH]c1=O` (centres unmarked) [2 t, d4TTP, reference compound], the “stability in cell extracts (in words)” value (CEM cell extracts, incubation up to 30 h) is reported as “rapidly enzymatically dephosphorylated”.

Take `CCCCCCCCCCCCCCCC(=O)Oc1ccc(COP(=O)(OCCCC)OP(=O)(O)OP(=O)(O)OCC2C=CC(n3cc(C)c(=O)[nH]c3=O)O2)cc1` (centres unmarked) [6 ew, γ‐(AB‐C15,alkyl‐C4)‐d4TTP]: the half-life at 0.86 mM was 2.2 h.
